Read-outs that look alike come from different tables or passages of the source.
Columns and labels:
[1] = target: T1, jack bean α-mannosidase (JBMan) (Canavalia ensiformis, UniProt C0HJB3); conditions: read-out: IC50 JBMan, cited from earlier work
T1 sequence (C0HJB3 1-981): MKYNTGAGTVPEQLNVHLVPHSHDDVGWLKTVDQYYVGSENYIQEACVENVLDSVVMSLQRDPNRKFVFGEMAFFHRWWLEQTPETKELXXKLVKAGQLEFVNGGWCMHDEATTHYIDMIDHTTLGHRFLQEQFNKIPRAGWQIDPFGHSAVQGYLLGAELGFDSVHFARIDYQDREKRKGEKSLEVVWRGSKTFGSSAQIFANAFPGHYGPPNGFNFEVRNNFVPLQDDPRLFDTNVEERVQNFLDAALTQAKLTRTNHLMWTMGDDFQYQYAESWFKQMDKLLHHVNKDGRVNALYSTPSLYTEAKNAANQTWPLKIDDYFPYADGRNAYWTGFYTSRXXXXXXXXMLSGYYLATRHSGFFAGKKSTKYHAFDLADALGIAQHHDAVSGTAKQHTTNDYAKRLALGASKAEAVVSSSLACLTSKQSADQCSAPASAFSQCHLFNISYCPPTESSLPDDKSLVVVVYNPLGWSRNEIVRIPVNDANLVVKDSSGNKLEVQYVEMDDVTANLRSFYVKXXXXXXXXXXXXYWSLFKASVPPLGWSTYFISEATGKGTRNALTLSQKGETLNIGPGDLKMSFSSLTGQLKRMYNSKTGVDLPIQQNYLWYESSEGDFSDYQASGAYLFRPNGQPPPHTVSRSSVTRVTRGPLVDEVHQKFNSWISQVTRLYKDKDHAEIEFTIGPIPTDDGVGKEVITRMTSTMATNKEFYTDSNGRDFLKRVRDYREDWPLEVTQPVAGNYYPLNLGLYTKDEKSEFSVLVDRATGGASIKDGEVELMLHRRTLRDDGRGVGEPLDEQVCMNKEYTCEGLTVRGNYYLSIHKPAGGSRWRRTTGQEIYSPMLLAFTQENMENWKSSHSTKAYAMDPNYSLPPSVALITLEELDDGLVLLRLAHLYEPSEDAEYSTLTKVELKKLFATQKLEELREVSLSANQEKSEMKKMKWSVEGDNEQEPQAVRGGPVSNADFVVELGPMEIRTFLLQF

[2] = target: dGMII (Drosophila melanogaster α-mannosidase II); conditions: read-out: Ki dGMII (printed in dGMIIb column); ref Shah et al.[41]; cited from earlier work
[3] = target: T2, dGMIIb (Drosophila melanogaster Co(II)-activated Golgi α-mannosidase IIb) (Drosophila melanogaster, UniProt Q9VF33); conditions: cited from earlier work
T2 sequence (Q9VF33 31-1249): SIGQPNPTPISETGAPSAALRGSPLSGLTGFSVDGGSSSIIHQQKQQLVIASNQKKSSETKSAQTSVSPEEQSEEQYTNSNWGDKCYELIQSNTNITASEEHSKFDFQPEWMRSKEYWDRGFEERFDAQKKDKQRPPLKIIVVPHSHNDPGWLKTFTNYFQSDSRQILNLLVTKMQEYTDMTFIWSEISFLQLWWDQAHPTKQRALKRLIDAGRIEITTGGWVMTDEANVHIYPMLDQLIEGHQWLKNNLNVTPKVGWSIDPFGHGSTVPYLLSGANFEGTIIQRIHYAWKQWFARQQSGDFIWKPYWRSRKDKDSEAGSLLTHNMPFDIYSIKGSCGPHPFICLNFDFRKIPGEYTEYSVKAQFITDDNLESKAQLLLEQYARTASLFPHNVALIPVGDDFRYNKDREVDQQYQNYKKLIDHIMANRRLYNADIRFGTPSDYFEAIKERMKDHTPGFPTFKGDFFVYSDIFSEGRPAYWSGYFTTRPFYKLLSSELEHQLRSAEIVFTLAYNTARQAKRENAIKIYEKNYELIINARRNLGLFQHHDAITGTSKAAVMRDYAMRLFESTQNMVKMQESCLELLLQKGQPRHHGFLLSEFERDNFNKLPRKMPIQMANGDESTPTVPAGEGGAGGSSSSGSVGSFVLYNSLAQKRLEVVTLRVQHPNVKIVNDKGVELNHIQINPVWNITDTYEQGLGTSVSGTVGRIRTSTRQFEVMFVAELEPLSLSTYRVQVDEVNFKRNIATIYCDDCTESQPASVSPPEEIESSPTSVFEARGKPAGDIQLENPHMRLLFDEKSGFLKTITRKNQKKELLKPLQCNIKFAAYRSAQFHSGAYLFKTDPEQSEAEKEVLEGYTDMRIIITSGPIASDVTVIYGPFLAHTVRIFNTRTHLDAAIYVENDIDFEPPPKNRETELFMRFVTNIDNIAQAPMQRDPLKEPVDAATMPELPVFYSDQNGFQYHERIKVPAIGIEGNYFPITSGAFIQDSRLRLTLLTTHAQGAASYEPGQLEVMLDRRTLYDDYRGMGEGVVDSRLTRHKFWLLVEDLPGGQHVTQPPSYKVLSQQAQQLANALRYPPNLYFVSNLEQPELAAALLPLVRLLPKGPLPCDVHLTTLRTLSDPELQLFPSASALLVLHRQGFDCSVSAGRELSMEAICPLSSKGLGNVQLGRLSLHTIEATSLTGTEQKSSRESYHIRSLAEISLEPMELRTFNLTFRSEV

[4] = target: T1, jack bean α-mannosidase (JBMan); assay: Jack bean α-mannosidase inhibition assay; format: biochemical
[5] = target: T3, Aspergillus saitoi α1,2-mannosidase (AspMan) (Aspergillus phoenicis, UniProt Q12563); format: biochemical
T3 sequence (Q12563 22-513): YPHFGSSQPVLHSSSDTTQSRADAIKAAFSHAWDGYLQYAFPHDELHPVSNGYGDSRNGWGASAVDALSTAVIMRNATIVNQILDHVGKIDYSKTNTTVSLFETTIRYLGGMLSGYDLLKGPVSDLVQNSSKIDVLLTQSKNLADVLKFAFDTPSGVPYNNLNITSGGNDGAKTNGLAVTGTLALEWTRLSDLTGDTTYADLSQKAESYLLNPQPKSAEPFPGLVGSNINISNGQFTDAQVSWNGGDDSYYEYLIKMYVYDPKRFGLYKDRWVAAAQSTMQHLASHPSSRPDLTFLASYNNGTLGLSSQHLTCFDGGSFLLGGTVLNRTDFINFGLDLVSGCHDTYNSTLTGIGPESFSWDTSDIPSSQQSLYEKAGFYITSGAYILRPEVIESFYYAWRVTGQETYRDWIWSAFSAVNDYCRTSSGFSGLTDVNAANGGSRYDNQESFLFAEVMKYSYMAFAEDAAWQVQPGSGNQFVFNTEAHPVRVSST

[6] = target: T4, dLManII (Drosophila melanogaster lysosomal α-mannosidase II) (Drosophila melanogaster, UniProt Q9VKV1); assay: Class II α-mannosidase inhibition assay; format: biochemical
T4 sequence (Q9VKV1 25-1080): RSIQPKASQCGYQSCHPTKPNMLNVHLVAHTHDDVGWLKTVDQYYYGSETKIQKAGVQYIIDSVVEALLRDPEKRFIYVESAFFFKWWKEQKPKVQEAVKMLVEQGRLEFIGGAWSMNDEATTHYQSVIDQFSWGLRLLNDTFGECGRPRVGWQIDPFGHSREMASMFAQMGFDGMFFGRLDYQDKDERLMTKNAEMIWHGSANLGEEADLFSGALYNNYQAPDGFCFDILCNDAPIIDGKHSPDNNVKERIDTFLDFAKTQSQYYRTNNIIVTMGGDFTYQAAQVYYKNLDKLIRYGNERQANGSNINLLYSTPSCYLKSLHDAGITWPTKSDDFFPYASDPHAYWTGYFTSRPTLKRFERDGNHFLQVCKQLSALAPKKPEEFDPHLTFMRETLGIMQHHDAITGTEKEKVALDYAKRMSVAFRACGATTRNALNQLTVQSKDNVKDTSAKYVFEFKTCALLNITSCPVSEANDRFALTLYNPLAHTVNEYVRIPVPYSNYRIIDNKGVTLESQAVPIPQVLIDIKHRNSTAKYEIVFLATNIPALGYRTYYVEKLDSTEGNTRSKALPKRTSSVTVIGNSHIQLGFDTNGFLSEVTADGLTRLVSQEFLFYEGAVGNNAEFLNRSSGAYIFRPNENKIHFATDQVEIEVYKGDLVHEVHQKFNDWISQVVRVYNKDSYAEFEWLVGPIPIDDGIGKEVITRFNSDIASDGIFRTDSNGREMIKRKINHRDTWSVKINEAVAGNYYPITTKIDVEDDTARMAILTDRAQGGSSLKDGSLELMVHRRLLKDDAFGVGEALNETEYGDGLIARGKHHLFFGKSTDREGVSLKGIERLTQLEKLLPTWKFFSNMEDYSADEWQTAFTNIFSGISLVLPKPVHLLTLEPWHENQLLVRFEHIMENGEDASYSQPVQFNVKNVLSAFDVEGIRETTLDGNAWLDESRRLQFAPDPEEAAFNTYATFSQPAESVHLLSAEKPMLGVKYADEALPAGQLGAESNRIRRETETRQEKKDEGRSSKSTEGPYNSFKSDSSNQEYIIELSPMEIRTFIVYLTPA

[7] = target: T2, dGMIIb (Drosophila melanogaster Co(II)-activated Golgi α-mannosidase IIb); assay: Class II α-mannosidase inhibition assay; format: biochemical

O=C1N[C@@H]2[C@@H](O)[C@@H](O)[C@H](O)[C@@H](CO)N2C1=O [Kifunensine]
IC50 ([1]; ref Kayakiri et al.[42]): 120 µM
Ki [2]: 5200 µM

O=S(=O)(Cc1ccccc1)[C@H]1O[C@H](CO)[C@@H](O)[C@H](O)[C@@H]1O [Compound 9, benzyl α-D-mannopyranosyl sulfone]
IC50 ([3]; read-out: IC50 dGMIIb, ref Poláková et al.[30]): 2000 µM
selectivity GMII vs LM ([3]; ref [30]): selective towards GMII
IC50 ([4]; read-out: IC50 JBMan, pNP-Manp substrate, pH 4.5): 2000 µM

OC[C@H]1O[C@H](n2cc(Cc3ccccc3)nn2)[C@@H](O)[C@@H](O)[C@@H]1O [Compound 7, 4-Benzyl-1-α-D-mannopyranosyl-1,2,3-triazole]
IC50 [5]: 100 µM
IC50 [6]: 500 µM
IC50 [7]: 5000 µM
IC50 [4]: 1100 µM

CS[C@@H]1[C@@H](N)[C@@H](O)[C@@H](O)[C@H]1O [Mannostatin A, reference compound]
IC50 [6]: 3 µM
IC50 ([1]; ref Ogawa et al.[44]): 0.24 µM
IC50 [7]: 0.15 µM

OC[C@H]1O[C@H](n2cc(CCc3ccccc3)nn2)[C@@H](O)[C@@H](O)[C@@H]1O [Compound 8, 1-α-D-mannopyranosyl-4-(2-phenylethyl)-1,2,3-triazole]
IC50 [5]: 250 µM
IC50 [6]: 5000 µM
IC50 [7]: 6000 µM
IC50 [4]: 400 µM

OC[C@H]1O[C@H](n2cc(-c3ccccc3)nn2)[C@@H](O)[C@@H](O)[C@@H]1O [Compound 6, 1-α-D-mannopyranosyl-4-phenyl-1,2,3-triazole]
IC50 [5]: 50 µM
selectivity ratio [IC50(GH38)/IC50(GH47)] ([5]; GH38 mannosidases vs GH47 AspMan): 100
IC50 [6]: 5000 µM
IC50 [7]: 5000 µM
IC50 [4]: 400 µM

Source: paper PMC4382718 (Carbohydrate research, 2015)
